Measurements as given in patent publication US20220389477A1, “METHOD FOR EVALUATING ANTIBIOTIC SUSCEPTIBILITY” (Vrije Universiteit Brussel, priority 2019, published 2022).
≈ marks a conversion by molar mass, not a printed value.

What was measured:
Assay type in all cases: cell-based
[1] = test system: Klebsiella pneumonia culture; assay: Optical third-derivative MIC method, culture in broth; conditions: for MIC: Klebsiella pneumoniae
Source text: The method of FIG. 1 starts at a time equal to zero, t0 (1). Preferably, said t0 is the moment a pure bacteria culture is finished being prepared. Alternatively, said t0 is the moment all wells contain both said bacteria culture and said antimicrobial drug. After the starting of the experiment each well is periodically illuminated with a light source and the intensity of the transmitted light is detected with a photodetector (2). Preferably, each well is illuminated and the intensity of the transmitted light is detected every hour (2). More preferably, each well is illuminated and the intensity of the transmitted light is detected every 5 to 15 min. After a predetermined time length, preferably after 4 hours, a first, a second and a third derivative of said measured intensity is calculated (3) in a first and a second time frame for each well. Preferably, said second time frame is the last measured time frame after the test has been running for said predetermined time length, and said first time frame is the time frame preceding the second time frame. More preferably, said first time frame is between two and three hours and said second time frame is between three and four hours. After the calculation of said derivatives, said first derivative in said second time frame of said reference well is compared to a growth speed threshold value (4). Preferably, said growth speed threshold value is 0.166 (4). If said first derivative in said second time frame of said reference well is larger than or equal to said growth speed threshold value said bacteria culture is classified as Type I (4). If said first derivative in said second time frame of said reference well is smaller than said growth speed threshold value said bacteria culture is classified as Type II (4). Subsequently, independent of the classification of the bacteria culture according to the two types, the method comprises the following steps which are performed for each well or for all wells except said reference well. Both said first and said second time frames are evaluated to see if there is an inflection point present in the second derivative in said first and/or said second time frame (5).
If said first and/or said second time frame comprise said inflection point than said third derivative in said first time frame is compared to said third derivative in said second time frame (6). If said third derivative in said first time frame is larger than said third derivative in said second time frame, then said first time frame and said second time frame are selected as a first and second time frame to be used in a minimal inhibitory concentration determination method (10). If said third derivative in said first time frame is not larger than said third derivative in said second time frame, then said well is illuminated again after a certain time period, preferably an hour, more preferably 5 to 15 min after said predetermined time length said, with a light source and the intensity of the transmitted light is detected with a photodetector forming a new time frame subsequent to said second time frame (7). A third derivative, and possibly also a first and/or a second derivative, is calculated in said new time frame (7). Further, in step (7) a new first time frame is put equal to said second time frame and a new second time frame to equal to said new time frame. Subsequently, said third derivative in said new first time frame is compared to said third derivative in said new second time frame (8). If said derivative in said new first time frame is larger than said third derivative in said new second time frame, then said new first time frame and said new second time frame are selected as a first and second time frame to be used in a minimal inhibitory concentration determination method (10). […]

Acinetobacter Species [2] = assay: E-test; conditions: culture AC/2990
Acinetobacter Species [3] = assay: Broth microdilution (BMD); conditions: culture AC/2990
[4] = test system: Klebsiella pneumonia culture; assay: E-test; conditions: Klebsiella pneumoniae
[5] = test system: Klebsiella pneumonia culture; assay: Broth microdilution (BMD); conditions: Klebsiella pneumoniae

C[C@@H](O)[C@H]1C(=O)N2C(C(=O)O)=C(SCCN=CN)C[C@H]12 [imipenem]
MIC ([1]; 4 h, KP/38.3002, FIG. 5C, Table 5, 4 h-5 h, read-out: MIC (60%) T2): 8 µg/mL (≈ 26.7 µM)
MIC ([1]; 4 h, KP/38.3002, FIG. 5C, Table 5, 4 h-5 h, read-out: MIC (75%) T2): 8 µg/mL (≈ 26.7 µM)
MIC ([1]; 4 h, KP/153.4346, 4 h-5 h, read-out: MIC (25%) T2): > 256 µg/mL
MIC ([1]; 4 h, KP/153.4346, 4 h-5 h, read-out: MIC (40%) T2): > 256 µg/mL
MIC ([1]; 4 h, KP/153.4346, 4 h-5 h, read-out: MIC (60%) T2): 16 µg/mL (≈ 53.4 µM)
MIC ([1]; 4 h, KP/153.4346, 4 h-5 h, read-out: MIC (75%) T2): 16 µg/mL (≈ 53.4 µM)
MIC ([1]; 4 h, MP/072.3489, 4 h-5 h, read-out: MIC (25%) T2): 16 µg/mL (≈ 53.4 µM)
MIC ([1]; 4 h, MP/072.3489, 4 h-5 h, read-out: MIC (40%) T2): 8 µg/mL (≈ 26.7 µM)
MIC ([1]; 4 h, MP/072.3489, 4 h-5 h, read-out: MIC (60%) T2): 8 µg/mL (≈ 26.7 µM)
MIC ([1]; 4 h, MP/072.3489, 4 h-5 h, read-out: MIC (75%) T2): 8 µg/mL (≈ 26.7 µM)
MIC ([1]; 5 h, KP/38.3002, FIG. 5H, both repetitions, read-out: MIC value determined by the method): 16 µg/mL (≈ 53.4 µM)
MIC ([1]; KP/38.3002, FIG. 5C, overall conclusion, read-out: MIC value determined by the method): 16 µg/mL (≈ 53.4 µM)
MIC ([1]; KP/38.3002, FIG. 5H repetition, Table 10, 3 h-4 h, read-out: MIC (25%) T1): 0.5 µg/mL (≈ 1.67 µM)
MIC ([1]; KP/38.3002, FIG. 5H repetition, Table 10, 3 h-4 h, read-out: MIC (40%) T1): 0.5 µg/mL (≈ 1.67 µM)
MIC ([1]; KP/38.3002, FIG. 5H repetition, Table 10, 3 h-4 h, read-out: MIC (60%) T1): 0.5 µg/mL (≈ 1.67 µM)
MIC ([1]; KP/38.3002, FIG. 5H repetition, Table 10, 3 h-4 h, read-out: MIC (75%) T1): 0.5 µg/mL (≈ 1.67 µM)
MIC ([1]; KP/38.3002, FIG. 5H repetition, Table 10, 4 h-5 h, read-out: MIC (25%) T2): 16 µg/mL (≈ 53.4 µM)
MIC ([1]; KP/38.3002, FIG. 5H repetition, Table 10, 4 h-5 h, read-out: MIC (40%) T2): 16 µg/mL (≈ 53.4 µM)
MIC ([1]; KP/38.3002, FIG. 5H repetition, Table 10, 4 h-5 h, read-out: MIC (60%) T2): 16 µg/mL (≈ 53.4 µM)
MIC ([1]; KP/38.3002, FIG. 5H repetition, Table 10, 4 h-5 h, read-out: MIC (75%) T2): 8 µg/mL (≈ 26.7 µM)
MIC ([1]; KP/38.3002, FIG. 5H repetition, Table 11, 3 h-4 h, read-out: MIC (25%) T1): 16 µg/mL (≈ 53.4 µM)
MIC ([1]; KP/38.3002, FIG. 5H repetition, Table 11, 3 h-4 h, read-out: MIC (40%) T1): 0.25 µg/mL (≈ 0.835 µM)
MIC ([1]; KP/38.3002, FIG. 5H repetition, Table 11, 3 h-4 h, read-out: MIC (60%) T1): 0.25 µg/mL (≈ 0.835 µM)
MIC ([1]; KP/38.3002, FIG. 5H repetition, Table 11, 3 h-4 h, read-out: MIC (75%) T1): 0.25 µg/mL (≈ 0.835 µM)
MIC ([1]; KP/38.3002, FIG. 5H repetition, Table 11, 4 h-5 h, read-out: MIC (25%) T2): 16 µg/mL (≈ 53.4 µM)
MIC ([1]; KP/38.3002, FIG. 5H repetition, Table 11, 4 h-5 h, read-out: MIC (40%) T2): 8 µg/mL (≈ 26.7 µM)
MIC ([1]; KP/38.3002, FIG. 5H repetition, Table 11, 4 h-5 h, read-out: MIC (60%) T2): 8 µg/mL (≈ 26.7 µM)
MIC ([1]; KP/38.3002, FIG. 5H repetition, Table 11, 4 h-5 h, read-out: MIC (75%) T2): 8 µg/mL (≈ 26.7 µM)
MIC ([1]; KP/153.4346, FIG. 5G, overall conclusion, read-out: MIC value determined by the method): > 256 µg/mL
MIC ([1]; MP/072.3489, FIG. 5B, overall conclusion, read-out: MIC value determined by the method): 16 µg/mL (≈ 53.4 µM)
HR? at MIC (25%) ([1]; MP/072.3489, ratio MIC T2/T1): yes (If the ratio of the MIC value in the second time frame over the MIC value in the first time frame is higher than or equal to 8 then the ratio is labelled to be heteroresistant)
HR? at MIC (40%) ([1]; MP/072.3489, ratio MIC T2/T1): yes (If the ratio of the MIC value in the second time frame over the MIC value in the first time frame is higher than or equal to 8 then the ratio is labelled to be heteroresistant)
HR? at MIC (60%) ([1]; MP/072.3489, ratio MIC T2/T1): yes (If the ratio of the MIC value in the second time frame over the MIC value in the first time frame is higher than or equal to 8 then the ratio is labelled to be heteroresistant)
HR? at MIC (75%) ([1]; MP/072.3489, ratio MIC T2/T1): yes (If the ratio of the MIC value in the second time frame over the MIC value in the first time frame is higher than or equal to 8 then the ratio is labelled to be heteroresistant)
MIC (Acinetobacter Species [2]): 0.25 µg/mL (≈ 0.835 µM)
MIC (Acinetobacter Species [3]): 0.25 µg/mL (≈ 0.835 µM)
MIC ([4]; culture KP/38.3002): 16 µg/mL (≈ 53.4 µM)
MIC ([4]; culture KP/153.4346): > 32 µg/mL
MIC ([4]; culture MP/072.3489): 16 µg/mL (≈ 53.4 µM)
MIC ([5]; culture KP/38.3002): 16 µg/mL (≈ 53.4 µM)
MIC ([5]; culture KP/153.4346): 16 µg/mL (≈ 53.4 µM)
MIC ([5]; culture MP/072.3489): 32 µg/mL (≈ 107 µM)
